Reference: patent US8957063B2, “Amine and ether compounds which modulate the CB2 receptor” (priority 2008, dated 2015)

The compounds below were run against T1, human CB2R (Homo sapiens, UniProt P34972) (assay: CB2R mediated modulation of cAMP synthesis). Conditions: not given.
T1 construct: host or cells: CHO cells
Type: cell-based
Method: B. CB2R Mediated Modulation of cAMP Synthesis:
Compounds of the invention were evaluated for their CB2 agonist or inverse agonistic activity in accordance with the following experimental method.
CHO cells expressing human CB2R (Euroscreen) were plated at a density of 5000 cells per well in 384 well plates and incubated overnight at 37° C. After removing the media, the cells were treated with test compounds diluted in stimulation buffer containing 1 mM IBMX, 0.25% BSA and 10 uM Forskolin. The assay was incubated for 30 minutes at 37° C. Cells were lysed and the cAMP concentration was measured using DiscoverX-XS cAMP kit, following the manufacturer's protocol. In this setting, agonists will decrease forskolin induced production of cAMP while inverse agonists will further increase forskolin induced production of cAMP. EC50 of agonists were calculated as follows. The maximal amount of cAMP produced by forskolin compared to the level of cAMP inhibited by 1 uM CP55940 is defined as 100%. The EC50 value of each test compound was determined as the concentration at which 50% of the forskolin-stimulated cAMP synthesis was inhibited. Data was analyzed using a four-parameter logistic model. (Model 205 of XLfit 4.0).

T1 sequence (P34972 whole entry): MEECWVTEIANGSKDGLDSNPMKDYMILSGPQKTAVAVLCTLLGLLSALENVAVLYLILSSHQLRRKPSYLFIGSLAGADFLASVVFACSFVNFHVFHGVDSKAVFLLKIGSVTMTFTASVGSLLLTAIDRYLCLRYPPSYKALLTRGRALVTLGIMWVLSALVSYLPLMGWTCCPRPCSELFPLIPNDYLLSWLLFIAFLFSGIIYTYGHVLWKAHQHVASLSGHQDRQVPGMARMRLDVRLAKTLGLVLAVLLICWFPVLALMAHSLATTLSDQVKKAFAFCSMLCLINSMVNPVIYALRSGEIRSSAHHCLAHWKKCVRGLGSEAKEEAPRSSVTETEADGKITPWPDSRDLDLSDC

| Compound | EC50 |
| --- | --- |
| CC(C)(Oc1ccc(Cl)cc1)C(=O)Nc1cc(C(C)(C)C)on1 [Example 1, N-(5-tert-Butyl-isoxazol-3-yl)-2-(4-chloro-phenoxy)-2-methyl-propionamide] | 2.4 nM |
| CC(C)(OCC1CCOCC1)C(=O)Nc1cc(C(C)(C)C)no1 [Example 2, N-(3-tert-Butyl-isoxazol-5-yl)-2-methyl-2-(tetrahydro-pyran-4-ylmethoxy)-propionamide] | 8.1 nM |
| CC(C)(OCC1CCOCC1)C(=O)Nc1cc(C(C)(C)C)on1 [Example 3, N-(5-tert-Butyl-isoxazol-3-yl)-2-methyl-2-(tetrahydro-pyran-4-ylmethoxy)-propionamide] | 50 nM |
| CC(C)(OC1CCOCC1)C(=O)Nc1cc(C(C)(C)C)no1 [Example 4, N-(3-tert-Butyl-isoxazol-5-yl)-2-methyl-2-(tetrahydro-pyran-4-yloxy)-propionamide] | 107 nM |
| CC(C)(OC1CCOCC1)C(=O)Nc1cc(C(C)(C)C)on1 [Example 5, N-(5-tert-Butyl-isoxazol-3-yl)-2-methyl-2-(tetrahydro-pyran-4-yloxy)-propionamide] | 123 nM |
| CC(C)(OCC1CCOCC1)C(=O)Nc1nc(-c2ccccc2)n[nH]1 [Example 6, 2-Methyl-N-(5-phenyl-2H-1,2,4-triazol-3-yl)-2-(tetrahydro-pyran-4-ylmethoxy)-propionamide] | 51 nM |
| CC(C)(OC1CCOCC1)C(=O)Nc1nc(-c2ccccc2)n[nH]1 [Example 7, 2-Methyl-N-(5-phenyl-2H-1,2,4-triazol-3-yl)-2-(tetrahydro-pyran-4-yloxy)-propionamide] | 235 nM |
| CC(C)(Oc1ccc(C(F)(F)F)cn1)C(=O)Nc1cc(C(C)(C)C)no1 [Example 8, N-(3-tert-Butyl-isoxazol-5-yl)-2-methyl-2-(5-trifluoromethyl-pyridin-2-yloxy)-propionamide] | 0.1 nM |
| COc1ccc(NC(C)(C)C(=O)Nc2cc(C(C)(C)C)on2)cc1 [Example 9, N-(5-tert-Butyl-isoxazol-3-yl)-2-(4-methoxy-phenylamino)-2-methyl-propionamide] | 8.7 nM |
| CC(C)NC(C)(C)C(=O)Nc1cc(C(C)(C)C)on1 [Example 10, N-(5-tert-Butyl-isoxazol-3-yl)-2-isopropylamino-2-methyl-propionamide] | 100 nM |
| CCC(C)NC(C)(C)C(=O)Nc1cc(C(C)(C)C)on1 (stereo not shown) [Example 11, 2-sec-Butylamino-N-(5-tert-butyl-isoxazol-3-yl)-2-methyl-propionamide] | 177 nM |
| CC(C)N(C)C(C)(C)C(=O)Nc1cc(C(C)(C)C)on1 [Example 12, N-(5-tert-Butyl-isoxazol-3-yl)-2-(isopropyl-methyl-amino)-2-methyl-propionamide] | 8.4 nM |
| CC(C)(C)c1cc(NC(=O)C(C)(C)N2CCOCC2)no1 [Example 13, N-(5-tert-Butyl-isoxazol-3-yl)-2-morpholin-4-yl-isobutyramide] | 45 nM |
| CC(C)(NC1CCCCC1)C(=O)Nc1cc(C(C)(C)C)on1 [Example 14, N-(5-tert-Butyl-isoxazol-3-yl)-2-cyclohexylamino-2-methyl-propionamide] | 9.5 nM |
| CCCCNC(C)(C)C(=O)Nc1cc(C(C)(C)C)on1 [Example 17, 2-Butylamino-N-(5-tert-butyl-isoxazol-3-yl)-2-methyl-propionamide] | 96 nM |
| CC1CCCN(C(C)(C)C(=O)Nc2cc(C(C)(C)C)on2)C1 (stereo not shown) [Example 19, N-(5-tert-Butyl-isoxazol-3-yl)-2-(3-methyl-piperidin-1-yl)-isobutyramide] | 0.34 nM |
| CC1CCCN1C(C)(C)C(=O)Nc1cc(C(C)(C)C)on1 (stereo not shown) [Example 20, N-(5-tert-Butyl-isoxazol-3-yl)-2-(2-methyl-pyrrolidin-1-yl)-isobutyramide] | 24 nM |

| Compound | EC50 |
| --- | --- |
| CC1CCN(C(C)(C)C(=O)Nc2cc(C(C)(C)C)on2)CC1 [Example 21, N-(5-tert-Butyl-isoxazol-3-yl)-2-(4-methyl-piperidin-1-yl)-isobutyramide] | 2.6 nM |
| CC(C)(C)c1cc(NC(=O)C(C)(C)N2CCSCC2)no1 [Example 22, N-(5-tert-Butyl-isoxazol-3-yl)-2-thiomorpholin-4-yl-isobutyramide] | 9.9 nM |
| CC(C)(NC1CC1)C(=O)Nc1cc(C(C)(C)C)on1 [Example 23, N-(5-tert-Butyl-isoxazol-3-yl)-2-cyclopropylamino-2-methyl-propionamide] | 235 nM |
| CC1CCCCN1C(C)(C)C(=O)Nc1cc(C(C)(C)C)on1 (stereo not shown) [Example 24, N-(5-tert-Butyl-isoxazol-3-yl)-2-(2-methyl-piperidin-1-yl)-isobutyramide] | 1.2 nM |
| COC1CCN(C(C)(C)C(=O)Nc2cc(C(C)(C)C)on2)CC1 [Example 25, N-(5-tert-Butyl-isoxazol-3-yl)-2-(4-methoxy-piperidin-1-yl)-isobutyramide] | 0.21 nM |
| CC(C)(C)c1cc(NC(=O)C(C)(C)N2CCCCC2)no1 [Example 26, N-(5-tert-Butyl-isoxazol-3-yl)-2-piperidin-1-yl-isobutyramide] | 0.55 nM |
| CC(C)(C)c1cc(NC(=O)C(C)(C)N2CCCC2)no1 [Example 27, N-(5-tert-Butyl-isoxazol-3-yl)-2-pyrrolidin-1-yl-isobutyramide] | 23 nM |
| CC(C)(C)c1cc(NC(=O)C(C)(C)N2CCC(F)(F)CC2)no1 [Example 28, N-(5-tert-Butyl-isoxazol-3-yl)-2-(4,4-difluoro-piperidin-1-yl)-isobutyramide] | 24 nM |
| CC(C)(C(=O)Nc1ccc(C(F)(F)F)cn1)N1CCCCC1 [Example 32, 2-Piperidin-1-yl-N-(5-trifluoromethyl-pyridin-2-yl)-isobutyramide] | 127 nM |
| CC(C)(C)c1cc(NC(=O)C(C)(C)n2ccc3cc(Cl)ccc32)no1 [Example 35, N-(5-tert-Butyl-isoxazol-3-yl)-2-(5-chloro-indol-1-yl)-isobutyramide] | 0.22 nM |
| CC(C)(C)c1cc(NC(=O)C(C)(C)N2CCC3(CCCCC3)C2)on1 [Example 36, 2-(2-Aza-spiro[4.5]dec-2-yl)-N-(3-tert-butyl-isoxazol-5-yl)-isobutyramide] | 0.45 nM |
| CC(C)(NCC1CCOCC1)C(=O)Nc1cc(C(C)(C)C)no1 [Example 37] | 14 nM |
| CC(C)(NCC1CCOCC1)C(=O)Nc1cc(C(C)(C)C)on1 [Example 38, N-(5-tert-Butyl-isoxazol-3-yl)-2-methyl-2-[(tetrahydro-pyran-4-ylmethyl)-amino]-propionamide] | 125 nM |
| CC(C)(NC1CCOCC1)C(=O)Nc1cc(C(C)(C)C)no1 [Example 39, N-(3-tert-Butyl-isoxazol-5-yl)-2-methyl-2-(tetrahydro-pyran-4-ylamino)-propionamide] | 29 nM |
| CC(C)(NC1CCOCC1)C(=O)Nc1cc(C(C)(C)C)on1 [Example 40, N-(5-tert-Butyl-isoxazol-3-yl)-2-methyl-2-(tetrahydro-pyran-4-ylamino)-propionamide] | 35 nM |
| CC(C)(NCC1CCOCC1)C(=O)Nc1nc(-c2ccccc2)n[nH]1 [Example 41, 2-Methyl-N-(5-phenyl-2H-1,2,4-triazol-3-yl)-2-[(tetrahydro-pyran-4-ylmethyl)-amino]-propionamide] | 98 nM |

Same assay, conditions: CHO cells expressing human CB2R; concentration at which 50% of the forskolin-stimulated cAMP synthesis was inhibited; 100% defined by 1 uM CP55940; read-out: CB2 EC50

| Compound | EC50 |
| --- | --- |
| CC(C)(NC1CCCCC1)C(=O)Nc1ccc(C(F)(F)F)cn1 [Example 29, 2-Cyclohexylamino-2-methyl-N-(5-trifluoromethyl-pyridin-2-yl)-propionamide] | 469 nM |
